From PubChem BioAssay AID202 (DTP/NCI, 2004)
Several values for one entry are separate records, joined by “and”; a condition that tells them apart may be missing. Equal entries are not always repeated. *1 amine or outer side, *2 acyl side, *3 side chain or, on linkers, in order; H or OH if unused. Where a SMILES comes first, the peptide text is derived from it. Bridges are numbered along the chain shown (N, C = ends). Roman numbers before positions name the chains, in order. [ ]: non-standard residue; d: D form. Actinocin(9to1) = Cc1c2oc3c(C)ccc(C(=O)[*:1])c3nc-2c(C(=O)[*:2])c(N)c1=O; aThr = C[C@H](O)[C@H](N)C(=O)O; NMeV = CN[C@H](C(=O)O)C(C)C; Sar = CNCC(=O)O

Tested on: HT29 xenograft, nude mice, s.c., tumor weight T/C%
Test: NCI In Vivo Anticancer Drug Screen. Data for tumor model HT29;CX-1 Human Adenocarcinoma (MER+) (subcutaneous) in NU/NU Swiss (nude) mice
Details: endpoint: optimum tumor weight change, higher = larger tumour
Experimental: The antitumor activity of compounds was measured in mice bearing transplantable tumors. Survival or tumor size were measured and the results are expressed as the measurement made in the treated group (T) divided by the measurement made in the vehicle treated control group (C). The tumor model used in this assay is HT29;CX-1 Human Adenocarcinoma (MER+) (subcutaneous) in NU/NU Swiss (nude) mice

[1] = dose: 25.0 mg/kg/injection, schedule: Q04DX003 (ip), vehicle: Klucel (hydroxypropylcellulose) (HPC)
[2] = dose: 100.0 mg/kg/injection, schedule: Q04DX003 (ip), vehicle: saline
[3] = dose: 200.0 mg/kg/injection, schedule: Q04DX003 (ip), vehicle: saline
[4] = dose: 20.0 mg/kg/injection, schedule: Q04DX003 (ip), vehicle: saline with Tween-80
[5] = dose: 50.0 mg/kg/injection, schedule: Q04DX003 (ip), vehicle: saline

Compound: C1CCC2[N-]CC3CCCCC3[N-]CC3CCCCC3[N-]CC3CCCCC3[N-]CC2C1.[Cu] (stereo not drawn)
- T/C (dose: 3.13 mg/kg/injection, schedule: Q04DX003 (ip), vehicle: Klucel (hydroxypropylcellulose) (HPC)): 62 % of control
- T/C (dose: 6.25 mg/kg/injection, schedule: Q04DX003 (ip), vehicle: Klucel (hydroxypropylcellulose) (HPC)): 90 % of control
- T/C (dose: 12.5 mg/kg/injection, schedule: Q04DX003 (ip), vehicle: Klucel (hydroxypropylcellulose) (HPC)): 70 % of control
- T/C [1]: 94 % of control

Compound: NC(=O)c1ccc[n+](Cc2c(Cl)cccc2Cl)c1
- T/C (dose: 48.0 mg/kg/injection, schedule: Q04DX003 (ip), vehicle: saline): 122 % of control

Compound: CN(N=O)C(=O)N[C@@H](C=O)[C@@H](O)[C@H](O)[C@H](O)CO
- T/C [2]: 82 % of control
- T/C [3]: 98 % of control

Compound: COc1cccc2c1C(=O)c1c(O)c3c(c(O)c1C2=O)C[C@@](O)(C(=O)CO)C[C@@H]3OC1CC(N)CC(C)O1 (stereo partly drawn)
- T/C (dose: 0.37 mg/kg/injection, schedule: Q04DX003 (ip), vehicle: water): 63 % of control
- T/C (dose: 0.75 mg/kg/injection, schedule: Q04DX003 (ip), vehicle: water): 54 % of control
- T/C (dose: 1.5 mg/kg/injection, schedule: Q04DX003 (ip), vehicle: water): 39 % of control

Compound: CC(=O)OCC(=O)[C@@]12OC(C)(C)O[C@@H]1C[C@H]1[C@@H]3CC(C=O)=C4C=C(OCCCl)CC[C@]4(C)[C@@]3(F)[C@@H](O)C[C@@]12C
- T/C [1]: 52 % of control and 59 % of control

Compound: CC(=O)OCC1OC(n2ccc(N)nc2=O)C(OC(C)=O)C1OC(C)=O (stereo not drawn)
- T/C (dose: 100.0 mg/kg/injection, schedule: Q04DX003 (ip), vehicle: suspension in saline): 65 % of control and 89 % of control
- T/C (dose: 200.0 mg/kg/injection, schedule: Q04DX003 (ip), vehicle: suspension in saline): 56 % of control

Compound: CSc1cc(=O)n2c3ccccc3c3ccnc1c32
- T/C [4]: 101 % of control
- T/C (dose: 160.0 mg/kg/injection, schedule: Q04DX003 (ip), vehicle: saline with Tween-80): 89 % of control and 99 % of control
- T/C (dose: 320.0 mg/kg/injection, schedule: Q04DX003 (ip), vehicle: saline with Tween-80): 82 % of control
- T/C (dose: 640.0 mg/kg/injection, schedule: Q04DX003 (ip), vehicle: saline with Tween-80): 81 % of control

Compound: COc1cccc2c1C(=O)c1c(O)c3c(c(O)c1C2=O)C[C@@](O)(C(=O)CO)C[C@@H]3OC1CC(N)C(OC)C(C)O1 (stereo partly drawn)
- T/C (dose: 1.56 mg/kg/injection, schedule: Q04DX003 (ip), vehicle: saline): 80 % of control

Compound: COc1cc2c[n+](C)c3c4cc5c(cc4ccc3c2cc1OC)OCO5
- T/C [4]: 111 % of control
- T/C (dose: 40.0 mg/kg/injection, schedule: Q04DX003 (ip), vehicle: saline with Tween-80): 124 % of control
- T/C (dose: 80.0 mg/kg/injection, schedule: Q04DX003 (ip), vehicle: saline with Tween-80): 50 % of control

Compound: O=C1N[C@@H]([C@H]2CC[C@H](Cl)CN2)C(=O)N[C@H]1[C@H]1CC[C@H](Cl)CN1
- T/C (dose: 0.31 mg/kg/injection, schedule: Q01DX001 (ip), vehicle: water): 53 % of control
- T/C (dose: 0.63 mg/kg/injection, schedule: Q01DX001 (ip), vehicle: water): 64 % of control
- T/C (dose: 1.25 mg/kg/injection, schedule: Q01DX001 (ip), vehicle: water): 79 % of control

Compound: O=Cc1ccc(O)c(O)c1
- T/C (dose: 100.0 mg/kg/injection, schedule: Q04DX003 (ip), vehicle: saline with Tween-80): 94 % of control

Compound: CN1CCN(CCCN2c3ccccc3Sc3ccc(C(F)(F)F)cc32)CC1
- T/C [5]: 79 % of control

Compound: O=C[C@@H](CO)O[C@H](C=O)n1cnc2c(=O)[nH]cnc21
- T/C [2]: 57 % of control
- T/C [3]: 85 % of control
- T/C (dose: 400.0 mg/kg/injection, schedule: Q04DX003 (ip), vehicle: saline): 48 % of control

Compound: Nc1nc(N)c2cc(CNc3ccc(C(=O)NC(CC(=O)O)CC(=O)O)cc3)ccc2n1
- T/C (dose: 50.0 mg/kg/injection, schedule: Q04DX003 (ip), vehicle: Klucel (hydroxypropylcellulose) (HPC)): 84 % of control

Compound: Cc1c2oc3c(C)ccc(C(=O)N[C@@H]4C(=O)N[C@H](C(C)C)C(=O)N5CCC[C@H]5C(=O)N(C)CC(=O)N(C)[C@@H](C(C)C)C(=O)O[C@H]4C)c3nc-2c(C(=O)N[C@@H]2C(=O)N[C@H](C(C)C)C(=O)N3CCC[C@H]3C(=O)N(C)CC(=O)N(C)[C@@H](C(C)C)C(=O)O[C@H]2C)c(N)c1=O (I: [aThr][dV]P[Sar][NMeV] / II: [aThr][dV]P[Sar][NMeV]; ester I:1-I:C, II:1-II:C; linker I:N-II:N via Actinocin(9to1))
- T/C (dose: 150.0 micrograms/kg/injection, schedule: Q04DX003 (ip), vehicle: saline): 54 % of control
- T/C (dose: 300.0 micrograms/kg/injection, schedule: Q04DX003 (ip), vehicle: saline): 42 % of control

Compound: Oc1ccc(O)cc1
- T/C [5]: 173 % of control
